Test results: patent publication US20100285959A1, “HERBICIDAL MIXTURES” (priority 2006, published 2010)

Key:
[1] = test system: yellow foxtail (SETLU); assay: Test 5 field trial, postemergence; type: in vivo, Setaria glauca; conditions: atrazine 1120, glufosinate 470 or glyphosate 1120 g a.i./ha alone
From the text: (§1) Corn seeds (hybrid ‘Pioneer 38H69’) were planted in mid spring season, 5.1 cm deep in a silty clay loam soil having 3% organic matter and a pH of 6.5. Plots were 9.1 m long by 3.0 m wide with rows spaced 76 cm apart. The field was managed using conventional tillage practices. […] All treatments included a surfactant except glufosinate treatments, both alone and in combination. […] Results are summarized in Table 5 and are the means of the three replicates.

[2] = test system: Pennsylvania smartweed (POLPY); assay: Test 6 field trial, postemergence; type: in vivo, Polygonum pensylvanicum; conditions: 470 g a.i./ha
From the text: (§2) Corn seeds (hybrid ‘Pioneer 35Y62’) were planted in mid spring season, 3.8 cm deep in a silt loam soil having 4% organic matter and a pH of 5.8. Plots were 10.7 m long by 1.5 m wide with rows spaced 76 cm apart. Seeds were spaced 18 cm apart within the rows. The field was managed using conventional tillage practices. […] All treatments included a surfactant except glufosinate treatments, both alone and in combination. […] Results are summarized in Table 6 and are the means of the three replicates.

[3] = test system: redroot pigweed (AMARE); assay: Test 6 field trial, postemergence; type: in vivo, Amaranthus retroflexus; conditions: 470 g a.i./ha
From the text: as §2

[4] = test system: field pennycress (THLAR); assay: Test 5 field trial, postemergence; type: in vivo, Thlaspi arvense; conditions: atrazine 1120, glufosinate 470 or glyphosate 1120 g a.i./ha alone
From the text: as §1

[5] = test system: large crabgrass (DIGSA); assay: Test 5 field trial, postemergence; type: in vivo, Digitaria sanguinalis; conditions: atrazine 1120, glufosinate 470 or glyphosate 1120 g a.i./ha alone
From the text: as §1

[6] = test system: giant foxtail (SETFA); assay: Test 6 field trial, postemergence; type: in vivo, Setaria faberi; conditions: 470 g a.i./ha
From the text: as §2

[7] = test system: velvetleaf (ABUTH); assay: Test 5 field trial, postemergence; type: in vivo, Abutilon theophrasti; conditions: atrazine 1120, glufosinate 470 or glyphosate 1120 g a.i./ha alone
From the text: as §1

[8] = test system: common lambsquarters (CHEAL); assay: Test 5 field trial, postemergence; type: in vivo, Chenopodium album; conditions: atrazine 1120, glufosinate 470 or glyphosate 1120 g a.i./ha alone
From the text: as §1

[9] = test system: common ragweed (AMBEL); assay: Test 5 field trial, postemergence; type: in vivo, Ambrosia artemisiifolia; conditions: atrazine 1120, glufosinate 470 or glyphosate 1120 g a.i./ha alone
From the text: as §1

[10] = test system: giant foxtail (SETFA); assay: Test 5 field trial, postemergence; type: in vivo, Setaria faberi; conditions: atrazine 1120, glufosinate 470 or glyphosate 1120 g a.i./ha alone
From the text: as §1

[11] = test system: yellow foxtail (SETLU); assay: Test 6 field trial, postemergence; type: in vivo, Setaria glauca; conditions: 470 g a.i./ha
From the text: as §2

[12] = test system: corn (ZEAMD); assay: Test 5 field trial, postemergence; type: in vivo, Zea mays ssp. indentata; conditions: atrazine 1120, glufosinate 470 or glyphosate 1120 g a.i./ha alone
From the text: as §1

[13] = test system: velvetleaf (ABUTH); assay: Test 6 field trial, postemergence; type: in vivo, Abutilon theophrasti; conditions: 470 g a.i./ha
From the text: as §2

[14] = test system: corn (ZEAMD); assay: Test 6 field trial, postemergence; type: in vivo, Zea mays ssp. indentata; conditions: 470 g a.i./ha
From the text: as §2

[15] = test system: shepherd's purse (CAPBP); assay: Test 5 field trial, postemergence; type: in vivo, Capsella bursa-pastoris; conditions: atrazine 1120, glufosinate 470 or glyphosate 1120 g a.i./ha alone
From the text: as §1

[16] = test system: common lambsquarters (CHEAL); assay: Test 6 field trial, postemergence; type: in vivo, Chenopodium album; conditions: 470 g a.i./ha
From the text: as §2

[17] = test system: barley (HORVX); assay: Test 30 growth chamber, postemergence; type: in vivo, Hordeum vulgare
Description: (§3) A growth chamber test was conducted to evaluate the effects on the plant species wheat (TRZAW, Triticum aestivum L.) and barley (HORVX, Hordeum vulgare L.) with mixtures of Compound 1 and Compound 2 with glycerol. Wheat and barley seeds were planted in a sandy loam soil having 0.9% organic matter and a pH of 6.3. […] Wheat and barley plants were treated postemergence at the two leaf growth stage for Compound 1 and at the three leaf growth stage for Compound 2. Each treatment was replicated one time. […] Plants were watered as needed. […] Colby's Equation was used to determine herbicidal effects expected from the mixtures.

[18] = test system: wheat (TRZAW); assay: Test 30 growth chamber, postemergence; type: in vivo, Triticum aestivum
Description: as §3

[19] = test system: velvetleaf (ABUTH); assay: Test 15 greenhouse, postemergence; conditions: 12 DAA
[20] = 17 DAA, Glycerol 7100 g a.i./ha
[21] = 17 DAA, Glycerol 14200 g a.i./ha
[22] = 18 DAA, Glycerol 7100 g a.i./ha
[23] = 18 DAA, Glycerol 14200 g a.i./ha

`CP(=O)(O)CCC(N)C(=O)O` (stereo not shown) [Glufosinate] was tested. Which “SETLU Obs” value ([1]; 16 DAA) did it give?
The value was 98%.

What about the “SETLU Obs” value ([1]; 31 DAA) of the same compound?
Its value is 90%.

What about the “POLPY Obs” value ([2]; 14 DAA) of the same compound?
Its value is 98%.

What about the “POLPY Obs” value ([2]; 28 DAA) of the same compound?
The value was 98%.

And the “AMARE Obs” value ([3]; 14 DAA)?
Its value is 100%.

What about the “AMARE Obs” value ([3]; 28 DAA) of the same compound?
Its value is 100%.

What about the “THLAR Obs” value ([4]; 16 DAA) of the same compound?
Its value is 100%.

What about the “THLAR Obs” value ([4]; 31 DAA) of the same compound?
The value was 100%.

And the “DIGSA Obs” value ([5]; 16 DAA)?
The value was 99%.

What about the “DIGSA Obs” value ([5]; 31 DAA) of the same compound?
Its value is 94%.

What about the “SETFA Obs” value ([6]; 14 DAA) of the same compound?
The value was 99%.

What about the “SETFA Obs” value ([6]; 28 DAA) of the same compound?
The value was 99%.

And the “ABUTH Obs” value ([7]; 16 DAA)?
The value was 33%.

What about the “ABUTH Obs” value ([7]; 31 DAA) of the same compound?
The value was 27%.

And the “CHEAL Obs” value ([8]; 16 DAA)?
Its value is 87%.

And the “CHEAL Obs” value ([8]; 31 DAA)?
The value was 79%.

What about the “AMBEL Obs” value ([9]; 16 DAA) of the same compound?
Its value is 100%.

What about the “AMBEL Obs” value ([9]; 31 DAA) of the same compound?
The value was 100%.

What about the “SETFA Obs” value ([10]; 16 DAA) of the same compound?
The value was 100%.

And the “SETFA Obs” value ([10]; 31 DAA)?
The value was 99%.

And the “SETLU Obs” value ([11]; 14 DAA)?
Its value is 95%.

What about the “SETLU Obs” value ([11]; 28 DAA) of the same compound?
The value was 63%.

What about the “ZEAMD Obs” value ([12]; 16 DAA) of the same compound?
Its value is 0%.

What about the “ZEAMD Obs” value ([12]; 31 DAA) of the same compound?
The value was 0%.

What about the “ABUTH Obs” value ([13]; 14 DAA) of the same compound?
The value was 0%.

And the “ABUTH Obs” value ([13]; 28 DAA)?
The value was 0%.

What about the “ZEAMD Obs” value ([14]; 14 DAA) of the same compound?
Its value is 0%.

And the “ZEAMD Obs” value ([14]; 28 DAA)?
The value was 0%.

And the “CAPBP Obs” value ([15]; 16 DAA)?
Its value is 100%.

And the “CAPBP Obs” value ([15]; 31 DAA)?
The value was 100%.

What about the “CHEAL Obs” value ([16]; 14 DAA) of the same compound?
The value was 100%.

And the “CHEAL Obs” value ([16]; 28 DAA)?
Its value is 100%.

For `OCC(O)CO` [Glycerol], which HORVX Obs [17, 20] is on record?
Its HORVX Obs is 0%.

What about the HORVX Obs [17, 21] of the same compound?
The HORVX Obs was 0%.

What about the HORVX Obs [17, 22] of the same compound?
The HORVX Obs was 0%.

And the HORVX Obs [17, 23]?
The HORVX Obs was 0%.

What about the TRZAW Obs [18, 20] of the same compound?
The TRZAW Obs was 0%.

And the TRZAW Obs [18, 21]?
The TRZAW Obs was 0%.

And the TRZAW Obs [18, 22]?
Its TRZAW Obs is 0%.

And the TRZAW Obs [18, 23]?
The TRZAW Obs was 0%.

With `CCOc1cc(Oc2ccc(C(F)(F)F)cc2Cl)ccc1[N+](=O)[O-]` [Oxyfluorfen] as the compound, how does the “Obs response, scale 0 to 100” value ([19]; 15 g a.i./ha) read?
Its value is 43.

What about the “Obs response, scale 0 to 100” value ([19]; 30 g a.i./ha) of the same compound?
The value was 67.

And the “Obs response, scale 0 to 100” value ([19]; 60 g a.i./ha)?
The value was 81.

How did the “Obs response, scale 0 to 100” value ([19]; 2 g a.i./ha) turn out when `O=C1[C@H]2C[C@H](F)CN2C(=O)N1c1cc(NS(=O)(=O)CCl)c(Cl)cc1F` [Profluazol] was run?
Its value is 91.

And the “Obs response, scale 0 to 100” value ([19]; 8 g a.i./ha)?
Its value is 100.

And the “Obs response, scale 0 to 100” value ([19]; 15 g a.i./ha)?
Its value is 100.
